These results are taken from patent US8883833B2, “Substituted benzoazole PDE4 inhibitors for treating inflammatory, cardiovascular and CNS disorders” (Decode Genetics EHF, priority 2007, dated 2014).

Bounds are passed on as bounds.

Holding throughout (assay type): biochemical
In one assay the target is human PDE4D isozyme (Homo sapiens, UniProt Q08499). Briefly: IC50 for human PDE4D isozyme (Table 4). The following applies: read-out: IC50 for human PDE4D isozyme, hPDE4D. On the procedure: (§1) In-vitro assay for PDE4 enzymes. The in-vitro activity of PDE4 enzymes and the in-vitro potency of therapeutic agents described in the present invention was measured using a real-time, enzyme-coupled spectrophotometric assay. By using three different coupling enzymes, the product of the PDE4 reaction is coupled to the oxidation of the reduced form β-nicotinamide adenine dinucleotide (NADH), which dissipation can be monitored spectrophotmetrically at […]. Assay description. Buffer A containing 50 mM Tris, pH 8.0, 16 mM MgCl2 and 80 mM KCl is prepared and stored at room temperature. Buffer B containing 50 mM Tris, pH 8.0 is prepared and stored at toom temperature. Stock solutions of the following reagents are prepared in Buffer B and stored at −20° C.: Adenosine-5′-triphosphate (ATP), cyclic adenosine-5′-monophosphate (cAMP), phosphoenolpyruvate (PEP) and NADH. An assay mix is prepared by mixing Buffer A, […] (TCEP), ATP, PEP, NADH, myokinase (MK), pyruvate kinase (PK), lactate dehydroganese (LDH) and PDE4 to a final volume of 20 mL, which is enough for a single 96-well assay plate. Assay mix (180 μL) and test article (10 μL) in 1:1 DMSO/H2O mixture is pre-incubated at room temperature for 10 min. The enzymatic reaction is initiated by addition of cAMP (10 μL). Final concentration of all components in the assay (200 μL/well) are as follows: 10 mM MgCl2, 50 mM KCl, 5 mM TCEP, 2.5% DMSO, 0.4 mM NADH, 1 mM PEP, 0.04 mM ATP, 5 units MK, 1 unit PK, 1 unit LDH and appropriate amount of PDE4. Reaction progress curves are monitored in a plate reader capable of measuring light absorbance at 340 nm. A decrease in light absorbance at 340 nm is due to oxidation of NADH. Positive controls containing no test article and negative controls containing no test article and no cAMP are included on every assay plate. Reaction rates are determined from the slopes of the linear portions of the progress curves. All data is percent normalized with respect to controls and presented as percent inhibition.

The next assay addresses human PDE4B isozyme (Homo sapiens, UniProt Q07343). The assay is described as follows: IC50 for human PDE4B isozyme (Table 5). The following applies: read-out: IC50 for human PDE4B isozyme, hPDE4B. On the procedure:
as §1

Another assay deals with h4B1 (Homo sapiens, UniProt Q07343). The assay is described as follows: In-vitro assay for PDE4 enzymes, real-time enzyme-coupled spectrophotometric assay (Table 3). On the procedure:
as §1

The next assay concerns the target h4D7 (Homo sapiens, UniProt Q08499). The description is as above. How it is done:
as §1

h4B1, sequence (Q07343 whole entry): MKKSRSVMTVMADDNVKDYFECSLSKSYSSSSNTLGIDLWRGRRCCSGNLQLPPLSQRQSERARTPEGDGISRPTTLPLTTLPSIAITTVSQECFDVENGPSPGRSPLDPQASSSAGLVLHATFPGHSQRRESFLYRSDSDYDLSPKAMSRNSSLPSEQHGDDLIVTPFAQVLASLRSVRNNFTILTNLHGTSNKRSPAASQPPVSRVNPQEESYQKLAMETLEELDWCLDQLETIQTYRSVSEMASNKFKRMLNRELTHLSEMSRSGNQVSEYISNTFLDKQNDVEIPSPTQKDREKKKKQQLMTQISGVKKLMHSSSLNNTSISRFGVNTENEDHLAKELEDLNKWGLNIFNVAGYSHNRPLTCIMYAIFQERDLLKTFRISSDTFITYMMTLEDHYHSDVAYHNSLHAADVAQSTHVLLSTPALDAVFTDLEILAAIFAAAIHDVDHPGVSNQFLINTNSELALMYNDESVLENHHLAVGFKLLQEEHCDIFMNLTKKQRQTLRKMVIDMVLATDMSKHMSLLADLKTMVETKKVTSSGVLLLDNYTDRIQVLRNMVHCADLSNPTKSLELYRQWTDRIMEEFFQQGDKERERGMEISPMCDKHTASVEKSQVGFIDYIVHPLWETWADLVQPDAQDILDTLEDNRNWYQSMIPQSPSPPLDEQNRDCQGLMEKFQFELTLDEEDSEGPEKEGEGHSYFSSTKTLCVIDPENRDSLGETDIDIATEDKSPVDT
human PDE4B isozyme, sequence (Q07343 whole entry): as above
human PDE4D isozyme, sequence (Q08499 whole entry): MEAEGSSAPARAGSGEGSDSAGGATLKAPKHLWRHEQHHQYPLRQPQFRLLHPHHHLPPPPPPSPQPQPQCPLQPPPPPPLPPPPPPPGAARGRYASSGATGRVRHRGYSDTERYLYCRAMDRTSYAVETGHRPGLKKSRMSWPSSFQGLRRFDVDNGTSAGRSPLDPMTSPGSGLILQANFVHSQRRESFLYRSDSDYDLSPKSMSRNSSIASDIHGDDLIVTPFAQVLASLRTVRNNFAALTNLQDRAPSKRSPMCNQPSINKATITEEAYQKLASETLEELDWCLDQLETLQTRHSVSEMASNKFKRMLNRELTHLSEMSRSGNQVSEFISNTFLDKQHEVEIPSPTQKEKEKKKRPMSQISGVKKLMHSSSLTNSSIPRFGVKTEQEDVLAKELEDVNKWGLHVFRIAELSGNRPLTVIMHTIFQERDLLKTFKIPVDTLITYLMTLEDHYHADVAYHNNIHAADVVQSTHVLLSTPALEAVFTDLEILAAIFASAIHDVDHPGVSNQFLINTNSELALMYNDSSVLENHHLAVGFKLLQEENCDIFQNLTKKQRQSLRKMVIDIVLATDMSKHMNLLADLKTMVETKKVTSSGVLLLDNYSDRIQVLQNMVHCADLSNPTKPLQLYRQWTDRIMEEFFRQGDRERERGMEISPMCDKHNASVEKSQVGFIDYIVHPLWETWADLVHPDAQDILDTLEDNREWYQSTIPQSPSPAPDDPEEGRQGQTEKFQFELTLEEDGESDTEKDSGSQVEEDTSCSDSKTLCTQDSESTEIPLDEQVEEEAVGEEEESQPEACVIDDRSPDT
h4D7, sequence (Q08499 1-748 isoform Q08499-11): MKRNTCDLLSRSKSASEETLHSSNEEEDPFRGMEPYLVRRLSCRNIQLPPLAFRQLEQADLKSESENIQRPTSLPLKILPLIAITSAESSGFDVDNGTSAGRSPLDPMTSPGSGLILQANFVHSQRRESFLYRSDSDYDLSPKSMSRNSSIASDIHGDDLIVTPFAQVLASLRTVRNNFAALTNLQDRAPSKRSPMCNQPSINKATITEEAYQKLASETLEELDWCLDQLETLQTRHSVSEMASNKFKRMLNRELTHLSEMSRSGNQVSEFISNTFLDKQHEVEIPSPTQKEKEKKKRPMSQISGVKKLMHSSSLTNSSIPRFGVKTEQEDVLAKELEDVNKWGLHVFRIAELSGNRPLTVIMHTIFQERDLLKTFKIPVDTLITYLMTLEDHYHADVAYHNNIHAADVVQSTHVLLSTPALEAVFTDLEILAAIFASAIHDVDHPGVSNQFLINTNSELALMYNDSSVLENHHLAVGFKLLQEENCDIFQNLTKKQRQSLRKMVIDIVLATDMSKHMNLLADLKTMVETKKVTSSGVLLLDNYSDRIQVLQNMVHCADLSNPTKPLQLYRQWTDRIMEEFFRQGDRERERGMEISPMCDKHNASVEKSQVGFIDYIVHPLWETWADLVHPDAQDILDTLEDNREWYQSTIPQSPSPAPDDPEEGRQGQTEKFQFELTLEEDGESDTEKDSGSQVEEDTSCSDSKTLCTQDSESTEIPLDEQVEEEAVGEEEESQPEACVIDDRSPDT

For the compound `O=C1CCCN1Cc1cc2scnc2c(-c2cccc(Cl)c2)c1F` [BA-54, 1-[4-(3-Chloro-phenyl)-5-fluoro-benzothiazol-6-ylmethyl]-pyrrolidin-2-one], the IC50 at human PDE4D isozyme and on human PDE4B isozyme was less than 5 µM each time.

With `CN(C)c1ccc(Cc2cc3scnc3c(-c3cccc(Cl)c3)c2F)cn1` [BA-55, {5-[4-(3-chloro-phenyl)-5-fluoro-benzothiazol-6-ylmethyl]-pyridin-2-yl}-dimethyl-amine], the IC50 at human PDE4D isozyme and on human PDE4B isozyme was less than 5 µM throughout.

For `CN(C)c1ccc(Cc2cc(-c3cccc(Cl)c3)c3ncsc3c2)cn1` [BA-58, {5-[4-(3-chloro-phenyl)-benzothiazol-6-ylmethyl]-pyridin-2-yl}-dimethyl-amine], the concentration for half-maximal inhibition (IC50) at human PDE4D isozyme and at human PDE4B isozyme was less than 5 µM each time.

On to `Clc1cccc(-c2cc(Cc3ccc(N4CCCC4)nc3)cc3scnc23)c1` [BA-59, 4-(3-chloro-phenyl)-6-(6-pyrrolidin-1-yl-pyridin-3-ylmethyl)-benzothiazole], for which the half-inhibitory concentration (IC50) was less than 5 µM on human PDE4D isozyme and 20 to 40 µM at human PDE4B isozyme.

With `N#Cc1ccc(Cc2cc3scnc3c(-c3cccc(Cl)c3)c2F)cn1` [BA-60, 5-[4-(3-chloro-phenyl)-5-fluoro-benzothiazol-6-ylmethyl]-pyridine-2-carbonitrile], the IC50 at human PDE4D isozyme and on human PDE4B isozyme was less than 5 µM in each case.

With `Fc1c(Cc2ccc(N3CCC3)nc2)cc2scnc2c1-c1cccc(Cl)c1` [BA-61, 6-(6-azetidin-1-yl-pyridin-3-ylmethyl)-4-(3-chloro-phenyl)-5-fluoro-benzothiazole], the IC50 on human PDE4D isozyme and at human PDE4B isozyme was less than 5 µM each time.

For the compound `Nc1ccc(Cc2cc3scnc3c(-c3cccc(Cl)c3)c2F)cn1` [BA-63, 5-[4-(3-chloro-phenyl)-5-fluoro-benzothiazol-6-ylmethyl]-pyridin-2-ylamine], the IC50 at human PDE4D isozyme and at human PDE4B isozyme was less than 5 µM throughout.

For `CN(C)CC(=O)Nc1ccc(Cc2cc3scnc3c(-c3cccc(Cl)c3)c2F)cn1` [BA-64, N-{5-[4-(3-chloro-phenyl)-5-fluoro-benzothiazol-6-ylmethyl]-pyridin-2-yl}-2-dimethylamino-acetamide], the IC50 on human PDE4D isozyme and at human PDE4B isozyme was less than 5 µM in each case.

As for `CCNC(=O)Nc1ccc(Cc2cc(-c3cccc(Cl)c3)c3nc(C)sc3c2)cn1` [BA-67, 1-{5-[4-(3-chloro-phenyl)-2-methyl-benzothiazol-6-ylmethyl]-pyridin-2-yl}-3-ethyl-urea], the concentration for half-maximal inhibition (IC50) on human PDE4D isozyme and at human PDE4B isozyme was less than 5 µM in each case.

Take `O=C1CN(Cc2cc3scnc3c(-c3cccc(Cl)c3)c2F)CCN1` [BA-71, 4-[4-(3-Chloro-phenyl)-5-fluoro-benzothiazol-6-ylmethyl]-piperazin-2-one]: the IC50 at human PDE4D isozyme and on human PDE4B isozyme was less than 5 µM throughout.

`CCNC(=O)N1CCN(Cc2cc3scnc3c(-c3cccc(Cl)c3)c2F)C(=O)C1` [BA-72, 4-[4-(3-Chloro-phenyl)-5-fluoro-benzothiazol-6-ylmethyl]-3-oxo-piperazine-1-carboxylic acid ethylamide]: the IC50 at human PDE4D isozyme and on human PDE4B isozyme was less than 5 µM throughout.

Take `O=C1CNCCN1Cc1cc2scnc2c(-c2cccc(Cl)c2)c1F` [BA-73, 1-[4-(3-Chloro-phenyl)-5-fluoro-benzothiazol-6-ylmethyl]-piperazin-2-one]: the IC50 at human PDE4D isozyme and on human PDE4B isozyme was less than 5 µM each time.

With `NC(=O)[C@@H]1CCN1c1ccc(Cc2cc3scnc3c(-c3cccc(Cl)c3)c2F)cn1` [BA-74, (S)-1-{5-[4-(3-chloro-phenyl)-5-fluoro-benzothiazol-6-ylmethyl]-pyridin-2-yl}-azetidine-2-carboxylic acid amide], the IC50 on human PDE4D isozyme and on human PDE4B isozyme was less than 5 µM each time.

`NC(=O)[C@H]1CCN1c1ccc(Cc2cc3scnc3c(-c3cccc(Cl)c3)c2F)cn1` [BA-75, (R)-1-{5-[4-(3-chloro-phenyl)-5-fluoro-benzothiazol-6-ylmethyl]-pyridin-2-yl}-azetidine-2-carboxylic acid amide]: the half-inhibitory concentration (IC50) on human PDE4D isozyme and on human PDE4B isozyme was less than 5 µM each time.

For the compound `Nc1nc2c(-c3cccc([N+](=O)[O-])c3)cc(Cc3ccc(F)cc3)cc2s1` [Example 1, 6-(4-fluorobenzyl)-4-(3-nitrophenyl)-benzothiazol-2-yl amine], the figures for the half-maximal inhibitory concentration (IC50) on h4B1 and against h4D7 were 1 to 10 µM and less than 1000 nM, respectively.

With `Nc1nc2c(-c3cccc([N+](=O)[O-])c3)cc(Cn3ccnc3)cc2s1` [Example 2, 6-imidazol-1-ylmethyl-4-(3-nitro-phenyl)-benzothiazol-2-ylamine], the figures for the IC50 at h4B1 and on h4D7 were less than 1 µM and less than 1000 nM, respectively.

For `Nc1nc2c(-c3ccc4nonc4c3)cc(Cc3ccc(F)cc3)cc2s1` [Example 3, 4-Benzol[1,2,5]oxadiazol-5-yl-6-(4-fluoro-benzyl)-benzothiazol-2-yl amine], the IC50 on h4B1 was 1 to 10 µM; at h4D7, less than 1000 nM.

`Nc1nc2c(-c3ccc4c(c3)OCO4)cc(Cc3ccc(F)cc3)cc2s1` [Example 4, 4-Benzo[1,3]dioxol-5-yl-6-(4-fluoro-benzyl)-benzothiazol-2-ylamine]: the IC50 at h4B1 is 1 to 10 µM; against h4D7, less than 1000 nM.

For `Nc1nc2c(-c3ccc4c(c3)OCO4)cc(C(O)c3ccc(F)cc3)cc2s1` (stereo not drawn) [Example 5, (2-Amino-4-benzo[1,3]dioxol-5-yl-benzothiazol-6-yl)-(4-fluoro-phenyl)-methanol], the 50% inhibitory concentration (IC50) against h4D7 fell in the range of 1000 to 10000 nM.

On to `Cn1nccc1C(O)c1cc(-c2ccc3c(c2)OCO3)c2nc(N)sc2c1` (stereo not drawn) [Example 6, (2-Amino-4-benzo[1,3]dioxol-5-yl-benzothiazol-6-yl)-(2-methyl-2H-pyrazol-3-yl)-methanol], for which the values for the IC50 against h4B1 and against h4D7 were 10 to 20 µM and 1000 to 10000 nM, respectively.

Take `Nc1nc2c(-c3cccc(C(F)(F)F)c3)cc(Cc3ccc(F)cc3)cc2s1` [Example 7, 6-(4-Fluoro-benzyl)-4-(3-trifluoromethyl-phenyl)-benzothiazol-2-ylamine]: the IC50 at h4B1 was 1 to 10 µM; on h4D7, less than 1000 nM.

For the compound `Cn1nccc1Cc1cc(-c2ccc3c(c2)OCO3)c2nc(N)sc2c1` [Example 8, 4-Benzo[1,3]dioxol-5-yl-6-(2-methyl-2H-pyrazol-3-ylmethyl)-benzothiazol-2-ylamine], the IC50 was 1 to 10 µM on h4B1 and less than 1000 nM on h4D7.

Turning to `Nc1nc2c(-c3ccc4c(c3)OCO4)cc(Cn3cccn3)cc2s1` [Example 9, 4-Benzo[1,3]dioxol-5-yl-6-pyrazol-1-ylmethyl-benzothiazol-2-ylamine], the IC50 against h4B1 is 1 to 10 µM; against h4D7, 1000 to 10000 nM.

Regarding `Nc1nc2c(-c3ccc4c(c3)OCO4)nc(Cc3ccc(F)cc3)nc2s1` [Example 11, 7-Benzo[1,3]dioxol-5-yl-5-(4-fluorobenzyl)-thiazolo[5,4-d]pyrimidin-2-ylamine], the concentration for half-maximal inhibition (IC50) on h4B1 is 1 to 10 µM; against h4D7 it was less than 1000 nM.

As for `CC(=O)c1cccc(-c2cc(Cn3cccn3)cc3sc(N)nc23)c1` [Example 12, 1-[3-(2-Amino-6-pyrazol-1-ylmethyl-benzothiazol-4-yl)-phenyl]-ethanone], the IC50 was 1 to 10 µM on h4B1 and less than 1000 nM on h4D7.

For the compound `Nc1nc2c(-c3cccc(Br)c3)cc(Cc3ccc(F)cc3)cc2s1` [Example 13, 4-(3-bromophenyl)-6-(4-fluorobenzyl)-1,3-benzothiazol-2-amine], the results for the IC50 on h4B1 and on h4D7 were 1 to 10 µM and less than 1000 nM, respectively.

Take `CSc1cccc(-c2cc(Cn3cccn3)cc3sc(N)nc23)c1` [Example 14, 4-(3-Methylsulfanyl-phenyl)-6-pyrazol-1-ylmethyl-benzothiazol-2-ylamine]: the values for the half-maximal inhibitory concentration (IC50) against h4B1 and on h4D7 were 1 to 10 µM and less than 1000 nM, respectively.

For `Nc1ccc(Cc2cc3sc(N)nc3c(-c3cccc([N+](=O)[O-])c3)c2O)cc1` [Example 15, 2-Amino-6-(4-amino-benzyl)-4-(3-nitro-phenyl)-benzothiazol-5-ol], the IC50 on h4B1 was less than 1 µM; at h4D7, less than 1000 nM.

In turn, `Nc1ccc(Cc2cc3sc(N)nc3c(-c3cccc(Cl)c3)c2F)cc1` [Example 16, 6-(4-amino-benzyl)-4-(3-chloro-phenyl)-5-fluoro-benzothiazol-2-ylamine] had an IC50 on h4D7 of less than 1000 nM.

In turn, `NC(=O)NC1CCN(Cc2cc3scnc3c(-c3cccc(Cl)c3)c2F)CC1` [Example 46, [1-[4-(3-Chloro-phenyl)-5-fluoro-benzothiazol-6-ylmethyl]-piperidin-4-yl]-urea] gave a concentration for half-maximal inhibition (IC50) on h4D7 of 1000 to 10000 nM.
